Values of other authors as cited in patent US20010043957A1, “Lypolytic composition” (priority 2000, published 2001).

Columns and labels:
[1] = group of animals
[2] = per day, most healthy people, caffeine and related methylxanthines

Row | SMILES | loss in body weight [1] | amount safely consumed without adverse reactions [2] | loss in body fat [1]
1 | Cn1c(=O)c2c(ncn2C)n(C)c1=O [caffeine] | not significant loss in body weight | up to 200 mg | 
2 | CN[C@@H](C)[C@H](O)c1ccccc1 [ephedrine] | 14% |  | 42%
